Like-named read-outs stand apart in the source and are kept apart here.
Experiments:
membrane integrity = settings: cited from earlier work
E. coli = settings: cited from earlier work
E. coli LY01 = settings: starting pH of 6.0, acid at the IC50 obtained at a neutral pH; cited from earlier work
[1] = tested on: BW25113 ArecA cells transformed with the blank pBTL-1 vector; assay type: cell-based, E. coli; settings: control cells
Method: (§1) FIGS. 17A-17B represent methods of identification of a gene related to restoring tolerance. Multiple genome-wide SCALE selection was performed in the presence of ethanol, furfural and acetate respectively. The data set obtained for each compound was compared to the others. Alleles enriched in all cases were identified. […] To restore tolerance, overexpression of identified genes in bacterial cells was performed. For example, lpcA ORF was cloned into the pBTL-1 vector. BW25113 ArecA cells transformed with the blank pBTL-1 vector were used as a control. BW25113 ArecA cells overexpressing lpcA gene were referred to as pLPCA. Cells were inoculated at a standard cell density into MOPS minimal media, supplemented with furfural, acetate or ethanol. After 24 hours, growth of the cells was analyzed.
(§2) The indicated cells were grown in MOPS minimal media supplemented with glucose as a carbon source. Furfural was added to the media at the concentration of 1 g/L. Arabinose was added at 10 mM where indicated to gauge effect of AraC binding. The BW25113 araC::FRT-kan clone corresponds to JW0063, a BW25113 araC knockout mutant ordered from the Keio Collection directly. pBTL-1 represented the blank vector, and pLPCA referred to lpcA gene overexpression. […] To analyze the LPS level in the cells indicated in FIG. 19, LPS are extracted from the cells grown to exponential phase. Loading of LPS for the protein gel is normalized to the cell number. The gel is stained to visualize LPS protein bands after desired separation is obtained.
(§3) BW25113, MG1655, and derivatives were used where indicated. JW0063, an araC mutant of BW25113 was obtained from the Coli Genetic Stock Center (Yale). Overnight bacterial cultures were grown in Luria-Bertani medium with shaking. MOPS minimal medium (previously presented) with 0.2% glucose as a carbon source, was used for all seed cultures and growth studies. Seed cultures were inoculated at 2 v/v % from an overnight culture and were grown to mid-exponential phase. Growth cultures were inoculated with 10 v/v % seed cultures of an OD600 of 0.195-0.200 for an initial optical density of ˜0.02. Carbenicillin and kanamycin were used where appropriate at 100 μg/ml and 30 μg/ml, respectively. The pBTL-1 vector (previously described) was used as the control blank vector for all growth studies. Genome-wide furfural selection

[2] = tested on: BW25113 ArecA cells overexpressing lpcA gene (pLPCA); assay type: cell-based, E. coli; settings: for OD600 at 24 hr: pLPCA cells
Method: as §1, §2, §3

pBTL-1 lpcA culture = assay type: cell-based, E. coli; settings: for Specific Growth: n=3
Method: (§4) Certain experiments described herein were performed in E. coli BW25113 recA-, with the kanamycin resistance gene removed.
(§5) Cultures were grown in 10 ml MOPS minimal media, 100 μg carbenicillin/ml, and either 1 g furfural/1 supplemented, 2 g HMF/1, or 4 g acetate/1, in 15 ml conical tubes at 37° C. The optical density of 1 ml culture was measured with a spectrophotometer at 600 nm. A natural log transformation of the data was then calculated and then a regression line was fit to the data to calculate specific growth, which is […] to the culture doubling time. The blank vector, pBTL-1, served as the control. The lpcA gene was cloned into the pBTL-1 using standard cloning techniques and primers designed to amplify the gene from template DNA.

cell growth = settings: concentrations as low as, cited from earlier work
[3] = tested on: pBTL-1 Control (blank vector) culture; test: Aerobic growth (specific growth, final OD600) in MOPS minimal media with inhibitor, control; assay type: cell-based, E. coli; settings: for Specific Growth: n=3
Method: as §4, §5

bacterial cultures = settings: amino acid 10 mM, acetic acid 2.5 g/L, MOPS minimal medium, FIG. 4
Method: In another exemplary method, amino acid supplementation of cultures was observed and illustrated by histogram plot. Overnight cultures were prepared from freezer stocks. Stationary phase overnight cultures were used for a 2.5% inoculation of 5 mL MOPS minimal medium plus carbenicillin. The OD600 was monitored until the culture reached an OD600=0.2. […] Amino acid supplementation was done by preparing stock solutions of amino acids and supplementing the media to a final concentration of 10 mM. Cultures were incubated at 37° C. and were shaken at 225 rpm. OD600 was monitored over the course of exponential growth and final measurements were taken after 24 hours. Specific growth rate was calculated by linear regression on the natural logarithm of the exponential phase OD600 over time.

[4] = furfural vs. furfuryl alcohol; cited from earlier work
E. coli MC1022 = settings: cited from earlier work
[5] = aerobic growth in 4 g/L acetate
[6] = aerobic growth in 2 g/L hydroxymethyl furfural

Compound: O=C(O)c1ccco1 [2-furoic acid]
- membrane leakage (membrane integrity): significant membrane leakage

Compound: CC(=O)C=O [Methylgloxal]
- concentration inhibiting E. coli growth and protein synthesis (E. coli): 0.07 g/L

Compound: CC(=O)O [acetate, acetic acid]
- growth rate, percent that of control growth (E. coli LY01): 0%
- OD600 at 24 hr ([1]; 10 g/L of acetate): 0.75
- improvement of final optical density by pLPCA in BW25113 ([2]; acetate 5 g/l): 47±4%
- OD600 at 24 hr ([2]; 10 g/L of acetate): 1.4
- Final OD600 (24 hr) (pBTL-1 lpcA culture; [5]): 0.324
- Specific Growth (pBTL-1 lpcA culture; [5]): 0.126 h⁻¹
- concentration that retards growth (cell growth): 0.5 g/L
- acetate concentration shown to inhibit cell growth by 50% (cell growth; minimal media): 0.5 g/L
- Final OD600 (24 hr) [3, 5]: 0.111
- Specific Growth [3, 5]: 0.067 h⁻¹

Compound: N=C(N)NCCC[C@H](N)C(=O)O [arginine]
- effect of amino acid supplementation on growth rate (bacterial cultures): greatest increase in growth rate

Compound: CCO [ethanol]
- OD600 at 24 hr ([1]; 25 g/L of ethanol): 0.4
- improvement of final optical density by pLPCA in BW25113 ([2]; ethanol 25 g/l): 37±3%
- OD600 at 24 hr ([2]; 25 g/L of ethanol): 1.0

Compound: O=CO [formic acid]
- growth rate, percent that of control growth (E. coli LY01): 35%

Compound: OCc1ccco1 [furfuryl alcohol]
- membrane leakage (membrane integrity): significant membrane leakage
- toxicity on a concentration basis [4]: ~20 g/L

Compound: O=Cc1ccc(CO)o1 [hydroxymethyl furfural, 5-(hydroxymethyl)-2-furaldehyde]
- Final OD600 (24 hr) (pBTL-1 lpcA culture; [6]): 1.014
- Specific Growth (pBTL-1 lpcA culture; [6]): 0.234 h⁻¹
- Final OD600 (24 hr) [3, 6]: 0.170
- Specific Growth [3, 6]: 0.045 h⁻¹

Compound: CC(=O)CCC(=O)O [levulinic acid]
- growth rate, percent that of control growth (E. coli LY01): 10%

Compound: CSCC[C@H](N)C(=O)O [methionine]
- effect of amino acid supplementation on growth rate (bacterial cultures): greatest increase in growth rate

Compound: COc1cc(C=O)ccc1O [vanillin, 4-hydroxy-3-methoxybenzaldehyde]
- share of the population with membrane destabilization (E. coli MC1022; treatment for one hour at over three times the minimum inhibitory concentration): 29%
- share of the population with membrane destabilization (E. coli MC1022; when grown overnight after treatment): 13%
